# Source: ChEMBL document CHEMBL5226375, “Synthesis and Comprehensive in Vivo Activity Profiling of Olean-12-en-28-ol, 3β-Pentacosanoate in Experimental Autoimmune Encephalomyelitis: A Natural Remyelinating and Anti-Inflammatory Agent” (J Nat Prod, 2023)
# Active and inactive are the calls of the source. The rule behind the calls is not given here.
# What was measured:
# Mus musculus [1] = assay: Anti-inflammatory activity against MOG35-55-induced experimental autoimmune encephalomyelitis C57BL/6 mouse model assessed as fold change in MAG gene expression in brain at 600 mg/kg/day, ig for 14 days starting from 12th day of immunization by RT-qPCR analysis relative to control; format: functional; conditions: time 14 day
# Mus musculus [2] = assay: Anti-inflammatory activity against MOG35-55-induced experimental autoimmune encephalomyelitis C57BL/6 mouse model assessed as fold change in PLP gene expression in brain at 300 mg/kg/day, ig for 14 days starting from 12th day of immunization by RT-qPCR analysis relative to control; format: functional; conditions: time 14 day
# Mus musculus [3] = assay: Anti-inflammatory activity against MOG35-55-induced experimental autoimmune encephalomyelitis C57BL/6 mouse model assessed as reduction in serum Th1 cytokine level by measuring reduction in IL-2 level at 600 mg/kg/day, ig for 14 days starting from 12th day of immunization by ELISA; format: functional, organism-based; conditions: time 14.0 day
# Mus musculus [4] = assay: Anti-inflammatory activity against MOG35-55-induced experimental autoimmune encephalomyelitis C57BL/6 mouse model assessed as fold change in CXCL9 gene expression in brain at 300 mg/kg/day, ig for 14 days starting from 12th day of immunization by RT-qPCR analysis relative to control; format: functional; conditions: time 14 day
# Mus musculus [5] = assay: Anti-inflammatory activity against MOG35-55-induced experimental autoimmune encephalomyelitis C57BL/6 mouse model assessed as reduction in serum monokines level by measuring reduction in IL-1B level at 600 mg/kg/day, ig for 14 days starting from 12th day of immunization by ELISA; format: functional, organism-based; conditions: time 14.0 day
# [6] = Toxicity in C57BL/6 mouse assessed as serum LDH activity at 600 mg/kg/day, ig for 14 days by colorimetric analysis (reference value: 5.96 +/-1.08 U/ml); format: organism-based; conditions: in vivo, po, 336 h, time 14 day
# Mus musculus [7] = assay: Anti-inflammatory activity against MOG35-55-induced experimental autoimmune encephalomyelitis C57BL/6 mouse model assessed as reduction in IL-6 protein expression in brain at 300 to 600 mg/kg/day, ig for 14 days starting from 12th day of immunization by western blot analysis; format: functional, organism-based; conditions: dose 300-600 mg/kg/day, time 14.0 day
# Mus musculus [8] = assay: Anti-inflammatory activity against MOG35-55-induced experimental autoimmune encephalomyelitis C57BL/6 mouse model assessed as fold change in HIF1A gene expression in brain at 300 mg/kg/day, ig for 14 days starting from 12th day of immunization by RT-qPCR analysis relative to control; format: functional; conditions: time 14 day
# Mus musculus [9] = assay: Anti-inflammatory activity against MOG35-55-induced experimental autoimmune encephalomyelitis C57BL/6 mouse model assessed as fold change in CCL5 gene expression in brain at 300 mg/kg/day, ig for 14 days starting from 12th day of immunization by RT-qPCR analysis relative to control; format: functional; conditions: time 14 day
# Mus musculus [10] = assay: Anti-inflammatory activity against MOG35-55-induced experimental autoimmune encephalomyelitis C57BL/6 mouse model assessed as fold change in MMP9 gene expression in brain at 600 mg/kg/day, ig for 14 days starting from 12th day of immunization by RT-qPCR analysis relative to control; format: functional; conditions: time 14 day
# Mus musculus [11] = assay: Anti-inflammatory activity against MOG35-55-induced experimental autoimmune encephalomyelitis C57BL/6 mouse model assessed as fold change in STAT3 gene expression in brain at 300 mg/kg/day, ig for 14 days starting from 12th day of immunization by RT-qPCR analysis relative to control; format: functional; conditions: time 14 day
# Mus musculus [12] = assay: Anti-inflammatory activity against MOG35-55-induced experimental autoimmune encephalomyelitis C57BL/6 mouse model assessed as upregulation of MBP protein expression in brain at 0.15 to 0.3 mg/kg/day, ig for 14 days starting from 12th day of immunization by western blot analysis; format: functional, organism-based; conditions: dose 0.15-0.3 mg/kg/day, time 14.0 day
# Mus musculus [13] = assay: Anti-inflammatory activity against MOG35-55-induced experimental autoimmune encephalomyelitis C57BL/6 mouse model assessed as reduction in serum Th1 cytokine level by measuring reduction in IFNG level at 0.3 mg/kg/day, ig for 14 days starting from 12th day of immunization by ELISA; format: functional, organism-based; conditions: time 14.0 day
# Mus musculus [14] = assay: Anti-inflammatory activity against MOG35-55-induced experimental autoimmune encephalomyelitis C57BL/6 mouse model assessed as fold change in BCL2 gene expression in brain at 0.15 mg/kg/day, ig for 14 days starting from 12th day of immunization by RT-qPCR analysis relative to control; format: functional; conditions: time 14 day
# Mus musculus [15] = assay: (§1) Anti-inflammatory activity against MOG35-55-induced experimental autoimmune encephalomyelitis C57BL/6 mouse model assessed as reduction in EAE symptoms by measuring reduction in clinical score at 0.15 to 0.3 mg/kg/day, ig starting from 12th day of immunization and measured on day 14 post-immunization; format: functional, organism-based; conditions: dose 0.15-0.3 mg/kg/day, time 2.0 day
# Mus musculus [16] = assay: Anti-inflammatory activity against MOG35-55-induced experimental autoimmune encephalomyelitis C57BL/6 mouse model assessed as fold change in STAT3 gene expression in brain at 0.15 mg/kg/day, ig for 14 days starting from 12th day of immunization by RT-qPCR analysis relative to control; format: functional; conditions: time 14 day
# Mus musculus [17] = assay: Anti-inflammatory activity against MOG35-55-induced experimental autoimmune encephalomyelitis C57BL/6 mouse model assessed as fold change in TNF-alpha gene expression in brain at 0.15 mg/kg/day, ig for 14 days starting from 12th day of immunization by RT-qPCR analysis relative to control; format: functional; conditions: time 14 day
# Mus musculus [18] = assay: Anti-inflammatory activity against MOG35-55-induced experimental autoimmune encephalomyelitis C57BL/6 mouse model assessed as fold change in CXCL10 gene expression in brain at 0.3 mg/kg/day, ig for 14 days starting from 12th day of immunization by RT-qPCR analysis relative to control; format: functional; conditions: time 14 day
# Mus musculus [19] = assay: Anti-inflammatory activity against MOG35-55-induced experimental autoimmune encephalomyelitis C57BL/6 mouse model assessed as fold change in BCL2 gene expression in brain at 0.3 mg/kg/day, ig for 14 days starting from 12th day of immunization by RT-qPCR analysis relative to control; format: functional; conditions: time 14 day
# Mus musculus [20] = assay: as §1, with “in cumulative scores” for “in clinical score”, “at” for “at 0.15 to”, “ig for 14 days” for “ig”, “measured from” for “measured on”, “day 12 to 38” for “day 14”; format: functional, organism-based; conditions: time 1-26 day
# Mus musculus [21] = assay: Anti-inflammatory activity against MOG35-55-induced experimental autoimmune encephalomyelitis C57BL/6 mouse model assessed as fold change in CCL5 gene expression in brain at 0.15 mg/kg/day, ig for 14 days starting from 12th day of immunization by RT-qPCR analysis relative to control; format: functional; conditions: time 14 day
# Mus musculus [22] = assay: Anti-inflammatory activity against MOG35-55-induced experimental autoimmune encephalomyelitis C57BL/6 mouse model assessed as fold change in MMP9 gene expression in brain at 0.15 mg/kg/day, ig for 14 days starting from 12th day of immunization by RT-qPCR analysis relative to control; format: functional; conditions: time 14 day
# Mus musculus [23] = assay: Anti-inflammatory activity against MOG35-55-induced experimental autoimmune encephalomyelitis C57BL/6 mouse model assessed as methylation of CpG sites of IL13 gene promoter in brain at […], ig for 14 days starting from 12th day of immunization by PCR analysis (reference value: 57.3 +/-8%); format: functional; conditions: time 14 day
smiles,measurement,setting,value
CCCCCCCCCCCCCCCCCCCCCCCCC(=O)O[C@H]1CC[C@]2(C)[C@H]3CC=C4[C@@H]5CC(C)(C)CC[C@]5(CO)CC[C@@]4(C)[C@]3(C)CC[C@H]2C1(C)C,fold change (FC),Mus musculus [1],-1.18
same,fold change (FC),Mus musculus [2],1.9
same,Activity,Mus musculus [3],Active
same,fold change (FC),Mus musculus [4],1.63
same,Activity,Mus musculus [5],Active
same,Activity,[6],5.37 U/ml
same,Activity,Mus musculus [7],Active
same,fold change (FC),Mus musculus [8],1.92
same,fold change (FC),Mus musculus [9],2.69
same,fold change (FC),Mus musculus [10],2.8
same,fold change (FC),Mus musculus [11],1.54
CCCCCCCCc1ccc(CCC(N)(CO)CO)cc1 [FINGOLIMOD],Activity,Mus musculus [12],inactive
same,Activity,Mus musculus [13],Active
same,fold change (FC),Mus musculus [14],2.24
same,Activity,Mus musculus [15],Active
same,fold change (FC),Mus musculus [16],1.96
same,fold change (FC),Mus musculus [17],2.21
same,fold change (FC),Mus musculus [18],2.17
same,fold change (FC),Mus musculus [19],2.12
same,Activity,Mus musculus [20],Active
same,fold change (FC),Mus musculus [21],4.46
same,fold change (FC),Mus musculus [22],2.43
same,Activity,Mus musculus [23],33.1%
